Results reported in patent US20240173241A1, “Multistable Photochromic Pigments For Intradermal Use” (THE REGENTS OF THE UNIVERSITY OF COLORADO, a body corporate, priority 2021, published 2024).

Experiment: UV activation of P-type photochromic dye in PMMA matrix in natural sunlight (ΔE*ab vs. time)
Format: physicochemical
Text: FIG. 5 is a set of six graphs (A-F) comparing measured and modeled data for the UV activation of P-type photochromic dyes with and without UV and color filters. The UV-activated color change is quantified by ΔE*ab in CIELAB chromaticity space for measured data, while it is expressed in terms of the relative concentration. [C], of the photoactivated species in the modeled data. (A) ΔE*ab vs. time for a P-type photochromic dye (1,2-Bis(2-methyl-5-phenyl-3-thienyl)-perfluorocyclopentenediarylethene, DAE-0001) embedded in a PMMA matrix in natural sunlight in Boulder, Colorado. The time to 85% complete activation, […], is 67 s. (B) ΔE*ab vs. time for DAE-0001 with 50% UV filter ([…] =142 s). […]
where [C] is the concentration of the photoactivated species (photostationary state), [S] is the concentration of the ground-state species, εS,λ is the molar absorptivity of the ground-state species at wavelength λ, εC,λ is the molar absorptivity of the photoactivated species at wavelength λ, φs is the quantum yield of the cycloreversion or deactivation, φC is the quantum yield of photoactivation, Iλ is the irradiance at wavelength λ, and l is the path length. […] The simulations agree well with measured data of its UV activation in natural sunlight in Boulder, Colorado, as shown in FIG. 5A and FIG. 5B. […]

With Cc1sc(-c2ccccc2)cc1C1=C(c2cc(-c3ccccc3)sc2C)C(F)(F)C(F)(F)C1(F)F [DAE-0001, 1,2-Bis(2-methyl-5-phenyl-3-thienyl)-perfluorocyclopentenediarylethene] the “time to 85% complete activation” value (embedded in a PMMA matrix, natural sunlight in Boulder, Colorado, no filter (FIG. 5A)) was 67 s and the “time to 85% complete activation” value (natural sunlight, with 50% UV filter (FIG. 5B)) was 142 s.
